Consider 15 compounds from patent publication US12036291B2, “Probes for imaging huntingtin protein” (CHDI Foundation, Inc., priority 2014, dated 2024).

Each structure is given as a SMILES string. Bounds are passed on as bounds.

The target in the first test is T1, Q46 protein aggregates (Homo sapiens, UniProt P42858).
T1 construct: fused on or other part: GST at the N-terminus, cut off with thrombin before aggregation
T1 sequence (P42858 with tags, fused parts or gaps with the stated changes, form open): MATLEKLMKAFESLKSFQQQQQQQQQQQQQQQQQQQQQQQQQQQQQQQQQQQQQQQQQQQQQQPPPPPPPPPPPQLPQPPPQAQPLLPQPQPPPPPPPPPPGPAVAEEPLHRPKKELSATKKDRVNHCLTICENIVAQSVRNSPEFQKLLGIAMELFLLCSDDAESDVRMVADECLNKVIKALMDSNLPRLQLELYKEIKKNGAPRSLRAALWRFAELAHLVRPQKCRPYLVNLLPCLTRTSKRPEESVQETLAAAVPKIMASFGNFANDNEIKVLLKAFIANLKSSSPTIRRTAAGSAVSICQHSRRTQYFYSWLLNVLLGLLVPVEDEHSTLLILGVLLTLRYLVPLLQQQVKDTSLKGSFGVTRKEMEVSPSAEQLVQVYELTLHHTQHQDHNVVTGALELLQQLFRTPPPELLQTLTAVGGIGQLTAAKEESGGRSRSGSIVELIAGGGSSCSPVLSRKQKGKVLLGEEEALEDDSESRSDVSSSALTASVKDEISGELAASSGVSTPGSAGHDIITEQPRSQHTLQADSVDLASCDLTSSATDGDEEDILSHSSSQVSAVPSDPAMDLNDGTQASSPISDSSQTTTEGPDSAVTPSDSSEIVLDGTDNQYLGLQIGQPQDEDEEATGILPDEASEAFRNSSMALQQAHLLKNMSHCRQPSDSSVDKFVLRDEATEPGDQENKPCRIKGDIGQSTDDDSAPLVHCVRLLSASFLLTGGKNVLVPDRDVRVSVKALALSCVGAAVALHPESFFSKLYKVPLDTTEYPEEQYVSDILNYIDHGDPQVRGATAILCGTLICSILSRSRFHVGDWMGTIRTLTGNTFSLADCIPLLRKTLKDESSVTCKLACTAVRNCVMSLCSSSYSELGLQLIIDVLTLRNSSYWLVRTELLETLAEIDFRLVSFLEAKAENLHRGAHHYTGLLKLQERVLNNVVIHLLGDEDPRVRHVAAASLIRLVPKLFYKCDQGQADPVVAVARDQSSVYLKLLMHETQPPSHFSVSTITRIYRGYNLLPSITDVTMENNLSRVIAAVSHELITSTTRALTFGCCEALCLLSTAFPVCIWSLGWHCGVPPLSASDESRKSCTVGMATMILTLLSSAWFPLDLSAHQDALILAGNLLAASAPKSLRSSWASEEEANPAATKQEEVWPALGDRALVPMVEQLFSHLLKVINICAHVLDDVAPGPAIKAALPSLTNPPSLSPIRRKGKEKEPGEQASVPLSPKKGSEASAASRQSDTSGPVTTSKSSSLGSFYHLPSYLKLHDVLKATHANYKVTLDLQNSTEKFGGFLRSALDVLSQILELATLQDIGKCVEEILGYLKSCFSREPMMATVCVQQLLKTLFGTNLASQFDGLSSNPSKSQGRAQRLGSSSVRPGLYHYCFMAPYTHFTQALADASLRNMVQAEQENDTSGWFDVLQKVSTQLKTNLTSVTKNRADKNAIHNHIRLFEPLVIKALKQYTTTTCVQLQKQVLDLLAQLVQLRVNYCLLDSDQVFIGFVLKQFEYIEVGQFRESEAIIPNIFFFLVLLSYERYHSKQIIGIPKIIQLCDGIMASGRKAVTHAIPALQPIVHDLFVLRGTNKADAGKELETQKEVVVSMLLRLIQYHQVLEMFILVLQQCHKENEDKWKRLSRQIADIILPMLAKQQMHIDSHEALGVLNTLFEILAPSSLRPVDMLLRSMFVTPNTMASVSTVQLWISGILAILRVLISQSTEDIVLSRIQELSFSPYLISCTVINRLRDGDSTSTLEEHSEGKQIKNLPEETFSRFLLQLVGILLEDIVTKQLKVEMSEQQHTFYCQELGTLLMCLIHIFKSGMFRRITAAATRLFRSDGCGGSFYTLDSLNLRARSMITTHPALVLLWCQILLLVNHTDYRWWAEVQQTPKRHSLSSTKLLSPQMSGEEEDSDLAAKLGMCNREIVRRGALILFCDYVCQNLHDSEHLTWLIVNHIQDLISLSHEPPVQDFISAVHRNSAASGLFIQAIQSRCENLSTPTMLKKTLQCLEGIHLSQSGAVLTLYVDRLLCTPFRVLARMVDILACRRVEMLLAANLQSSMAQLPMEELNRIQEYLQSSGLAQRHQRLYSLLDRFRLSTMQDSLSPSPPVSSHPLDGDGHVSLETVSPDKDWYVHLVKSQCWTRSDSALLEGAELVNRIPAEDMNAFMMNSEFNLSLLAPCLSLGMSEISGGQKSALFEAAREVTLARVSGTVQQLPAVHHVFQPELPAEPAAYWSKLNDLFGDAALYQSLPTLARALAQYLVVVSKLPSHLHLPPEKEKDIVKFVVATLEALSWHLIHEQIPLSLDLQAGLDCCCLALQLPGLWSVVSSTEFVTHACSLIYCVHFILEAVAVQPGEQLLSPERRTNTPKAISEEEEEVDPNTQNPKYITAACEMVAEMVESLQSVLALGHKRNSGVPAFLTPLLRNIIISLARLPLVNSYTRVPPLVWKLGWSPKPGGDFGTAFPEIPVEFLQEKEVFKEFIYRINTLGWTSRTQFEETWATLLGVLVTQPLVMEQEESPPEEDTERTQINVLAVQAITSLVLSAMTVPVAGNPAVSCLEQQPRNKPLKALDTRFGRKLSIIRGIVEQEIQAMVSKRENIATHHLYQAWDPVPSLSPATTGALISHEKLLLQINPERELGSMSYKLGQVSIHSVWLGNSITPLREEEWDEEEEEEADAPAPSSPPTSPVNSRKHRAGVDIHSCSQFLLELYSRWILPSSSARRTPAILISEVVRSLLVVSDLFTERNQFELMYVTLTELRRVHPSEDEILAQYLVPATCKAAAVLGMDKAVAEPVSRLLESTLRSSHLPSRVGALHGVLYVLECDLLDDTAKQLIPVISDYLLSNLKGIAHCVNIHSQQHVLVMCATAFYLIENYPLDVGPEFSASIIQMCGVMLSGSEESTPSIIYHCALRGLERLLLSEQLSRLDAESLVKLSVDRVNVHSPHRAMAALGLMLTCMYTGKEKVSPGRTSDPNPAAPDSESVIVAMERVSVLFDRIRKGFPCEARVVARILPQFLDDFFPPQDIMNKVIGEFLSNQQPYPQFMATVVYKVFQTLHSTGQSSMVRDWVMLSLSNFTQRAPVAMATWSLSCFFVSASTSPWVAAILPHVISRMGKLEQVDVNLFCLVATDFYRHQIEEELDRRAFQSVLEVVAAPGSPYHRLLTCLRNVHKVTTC
The test is described as follows: Q46 Radioligand Binding Assay (RBA), displacement of [3H3]MK-3328. To be noted: 5 μM Q46 protein aggregates, 10 nM ligand [3H3]MK-3328, 60 minutes at 37° C. The protocol:
Q46 Radioligand Binding Assay
For radioligand binding assays (RBA) GST-Q46 protein was generated based on a previous publication (Scherzinger et al. Cell, Vol. 90, 549-558, Aug. 8, 1997). For experiments 33 μM GST-Q46 was incubated with 150 μg/ml thrombin in assay buffer (150 mM NaCl, 50 mM Tris pH 8.0) and 2 mM CaCl2 for 16 hr at 37° C. Aggregated Q46 was pelleted by centrifugation for 5 min at 13,000 rpm in a bench top centrifuge and re-dissolved in the same volume of assay buffer. Test compounds were prepared by titration in DMSO at 11 concentrations from 33 μM to 1 nM. For the RBA, Q46 protein aggregates and test compounds were pre-incubated in assay buffer for 20 min at room temperature, in 140 μL/well in a 96-well plate (pp, round bottom). Then, ligand was added in 10 μL/well and incubated for 60 minutes at 37° C. Final assay concentrations were […] test compound, 5 μM Q46 protein (equivalent monomer concentration) and 10 nM ligand [^3H3]MK-3328 (Harrision et al., ACS Med Chem. Lett., 2 (2011), pp 498-502). Samples were transferred onto GF/B filter plates and washed 2× with 200 μL PBS using a Filtermate Harvester. After drying filter plates for 1 hour at 37° C., the back of the plates was sealed with foil and 30 μL/well scintillation fluid (Packard MicroScint 40) was added, incubated for 15 min in the dark and counted in a TopCount reader. For analysis, replicate data from independent assay plates were normalized towards 0% and 100% inhibition using control wells of vehicle (0% inhibition) and 3 μM unlabelled MK-3328 (100% inhibition). IC50 values were determined with a sigmoidal inhibition model with four variables (top, bottom, slope, IC50) in a global fit using the normalized replicate data.
For the compound `COc1ccc2c(c1)CN(c1ncccc1C#N)C2` [2-(5-methoxy-2,3-dihydro-1H-isoindol-2-yl)pyridine-3-carbonitrile], the IC50 (usually the point on the concentration scale where inhibition reaches its midpoint) was less than 100 nM.
For `N#Cc1cccnc1N1Cc2ccc(OCc3cncnc3)cc2C1` [2-[5-(pyrimidin-5-ylmethoxy)-2,3-dihydro-1H-isoindol-2-yl]pyridine-3-carbonitrile], the half-maximal inhibitory concentration (IC50) was less than 100 nM.
As to `COc1ccc(COc2ccc3c(c2)CN(c2ncccc2C#N)C3)nc1` [2-{5-[(5-methoxypyridin-2-yl)methoxy]-2,3-dihydro-1H-isoindol-2-yl}pyridine-3-carbonitrile], the half-inhibitory concentration (IC50) was less than 100 nM.
`COc1ccc2c(c1)CN(c1ccncc1C#N)C2` [4-(5-methoxy-2,3-dihydro-1H-isoindol-2-yl)pyridine-3-carbonitrile] had an IC50 of less than 100 nM.
As to `COc1ccc2c(c1)CN(c1ncncc1C#N)C2` [4-(5-methoxy-2,3-dihydro-1H-isoindol-2-yl)pyrimidine-5-carbonitrile], the concentration for half-maximal inhibition (IC50) was less than 100 nM.
Still for that read-out and setting: under `N#Cc1cncnc1N1Cc2ccc(OCc3ccccc3)cc2C1` [4-[5-(benzyloxy)-2,3-dihydro-1H-isoindol-2-yl]pyrimidine-5-carbonitrile] stands less than 100 nM; under `N#Cc1cnccc1N1Cc2ccc(OCc3cncnc3)cc2C1` [4-[5-(pyrimidin-5-ylmethoxy)-2,3-dihydro-1H-isoindol-2-yl]pyridine-3-carbonitrile], less than 100 nM.
Take `N#Cc1cnccc1N1Cc2ccc(OCc3ccc(O)cn3)cc2C1` [4-{5-[(5-hydroxypyridin-2-yl)methoxy]-2,3-dihydro-1H-isoindol-2-yl}pyridine-3-carbonitrile]: the concentration for half-maximal inhibition (IC50) is less than 100 nM.
`N#Cc1cncnc1N1Cc2ccc(OCc3ccc(O)cn3)cc2C1` [4-{5-[(5-hydroxypyridin-2-yl)methoxy]-2,3-dihydro-1H-isoindol-2-yl}pyrimidine-5-carbonitrile]: the half-inhibitory concentration (IC50) is less than 100 nM.
`COc1ccc(COc2ccc3c(c2)CN(c2ccncc2C#N)C3)nc1` [4-{5-[(5-methoxypyridin-2-yl)methoxy]-2,3-dihydro-1H-isoindol-2-yl}pyridine-3-carbonitrile] yielded a concentration for half-maximal inhibition (IC50) of less than 100 nM.
`COc1ccc(COc2ccc3c(c2)CN(c2ncncc2C#N)C3)nc1` [4-{5-[(5-methoxypyridin-2-yl)methoxy]-2,3-dihydro-1H-isoindol-2-yl}pyrimidine-5-carbonitrile] yielded an IC50 of less than 100 nM.
`COc1cnc(COc2ccc3c(c2)CN(c2ccncc2)C3)cn1` [5-[(5-methoxypyrazin-2-yl)methoxy]-2-(pyridin-4-yl)-2,3-dihydro-1H-isoindole] had an IC50 of less than 100 nM.
As to `COc1ccc(COc2ccc3c(c2)CN(c2ccncc2)C3=O)nc1` [5-[(5-methoxypyridin-2-yl)methoxy]-2-(pyridin-4-yl)-2,3-dihydro-1H-isoindol-1-one], the half-inhibitory concentration (IC50) is less than 100 nM.
Regarding `COc1ccc(COc2ccc3c(c2)CN(c2ccc(=O)n(C)n2)C3)nc1` [6-{5-[(5-methoxypyridin-2-yl)methoxy]-2,3-dihydro-1H-isoindol-2-yl}-2-methyl-2,3-dihydropyridazin-3-one], the IC50 was less than 100 nM.

The subject of a further test is recombinant tau and amyloid β1-42 (Aβ1-42) aggregates.
Assay: not given
To be noted: higher affinity for the tau aggregates than Aβ1-42 aggregates; cited from earlier work.
Take `CN(C)c1ccc(/C=C/c2nc3ccc(I)cc3[nH]2)cc1` [SBIM-3, 4-[(E)-2-(6-iodo-1H-benzimidazol-2-yl)ethenyl]-N,N-di methyl aniline]: the “ratio of Kd values (affinity for tau aggregates versus Aβ1-42 aggregates)” value is reported as 2.73.

In the next test the test system is NFT in sections of AD brain tissue.
Assay: not given
To be noted: in vitro autoradiography ([125I]SBIM-3) and fluorescent staining (SBIM-3); cited from earlier work.
Consider `CN(C)c1ccc(/C=C/c2nc3ccc(I)cc3[nH]2)cc1` [SBIM-3, 4-[(E)-2-(6-iodo-1H-benzimidazol-2-yl)ethenyl]-N,N-di methyl aniline], for which the “binding to NFT in sections of AD brain tissue” value is recorded as “bound NFT in sections of AD brain tissue”.
